Source: publication PMC10745768, “Stereoselective Synthesis and Antiproliferative Activity of Steviol-Based Diterpene 1,3-Aminoalcohol Regioisomers” (Molecules, 2023)

Assays:
[1] = tested on: MCF-7 cells; test: MTT antiproliferative assay, MCF-7; type: cell-based; settings: Homo sapiens, MCF7; for inhibition at 10 µM: MCF-7, 10 μM; for inhibition at 10 µM / inhibition at 30 µM: 72 h, read-out: Growth inhibition (%) ± SEM; for inhibition at 30 µM: MCF-7, 30 μM; for IC50: MCF-7, 72 h, read-out: calculated IC50
Summary of the method: (§1)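 72 h exposure, 10 µM and 30 µM; MTT 4 h; formazan in DMSO, A545. IC50 by sigmoid fit. n = 2 independent runs × 5 wells.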

[2] = tested on: NIH/3T3 fibroblast cells; test: MTT assay on non-malignant fibroblasts (selectivity); type: cell-based, murine; settings: Mus musculus, NIH3T3; for inhibition at 10 µM: NIH/3T3, 10 μM; for inhibition at 10 µM / inhibition at 30 µM: 72 h, read-out: Growth inhibition (%) ± SEM; for inhibition at 30 µM: NIH/3T3, 30 μM; for IC50: NIH/3T3, 72 h, read-out: calculated IC50
Summary of the method: as §1

[3] = tested on: cancer cells and fibroblasts (HeLa, SiHa, MCF-7, MDA-MB-231, A2780, NIH/3T3); test: MTT antiproliferative assay, cancer cells and fibroblasts; type: cell-based; settings: Fibroblast; range over all six cell lines; read-out: IC50 values against both the cancer cells and fibroblasts
Description: The in vitro anticancer effects of the presented compounds were assessed using the standard MTT [3-(4,5-dimethylthiazol2-yl)-2,5-diphenyltetrazolium bromide] assay on the following human cancer cell lines: cervical (HeLa and SiHa), breast (MCF-7 and MDA-MB-231) and ovarian cancer (A2780). The selectivity of the tested compounds was determined on murine embryonal fibroblast cells (NIH/3T3). The utilised cell lines were purchased from the European Collection of Cell Cultures (Salisbury, UK). The cells were cultivated in Eagle’s minimal essential medium supplemented with 10% fetal bovine serum, 1% non-essential amino acids and 1% antibiotic-antimycotic complex (penicillin, streptomycin, amphotericin B) at 37 °C in a humidified atmosphere containing 5% CO2. All media and supplements were purchased from Lonza Group Ltd. (Basel, Switzerland). The cancer cells were seeded into 96-well plates (5000 cells/well) and incubated overnight, and the test compounds were applied in two different concentrations (10 µM and 30 µM) and incubated for another 72 h under cell-culturing conditions. […] After 72 h, 20 µL of the 5 mg/mL MTT solution was added to each well, and the plates were incubated for 4 h. […] The absorbances were measured at 545 nm using a microplate reader (SPECTROStar Nano, BMG Labtech, Offenburg, Germany). […] The IC50 values were calculated using sigmoid curve fitting. […]

[4] = tested on: SiHa cells; test: MTT antiproliferative assay, SiHa; type: cell-based; settings: Homo sapiens, 72 h; for inhibition at 10 µM / inhibition at 30 µM: read-out: Growth inhibition (%) ± SEM; for IC50: read-out: calculated IC50
Summary of the method: as §1

[5] = tested on: A2780 cells; test: MTT antiproliferative assay, A2780; type: cell-based; settings: Homo sapiens; for IC50: A2780, 72 h, read-out: calculated IC50; for inhibition at 10 µM: A2780, 10 μM; for inhibition at 10 µM / inhibition at 30 µM: 72 h, read-out: Growth inhibition (%) ± SEM; for inhibition at 30 µM: A2780, 30 μM
Summary of the method: as §1

[6] = tested on: HeLa cells; test: MTT antiproliferative assay, HeLa; type: cell-based; settings: Homo sapiens, 72 h; for inhibition at 10 µM / inhibition at 30 µM: read-out: Growth inhibition (%) ± SEM; for IC50: read-out: calculated IC50
Summary of the method: as §1

[7] = tested on: MDA-MB-231 cells; test: MTT antiproliferative assay, MDA-MB-231; type: cell-based; settings: Homo sapiens; for IC50: MDA-MB-231, 72 h, read-out: calculated IC50; for inhibition at 10 µM: MDA-MB-231, 10 μM; for inhibition at 10 µM / inhibition at 30 µM: 72 h, read-out: Growth inhibition (%) ± SEM; for inhibition at 30 µM: MDA-MB-231, 30 μM
Summary of the method: as §1

| IC50 [1] | IC50 [5] | IC50 [6] | IC50 [7] | Compound | inhibition at 10 µM [1] | inhibition at 30 µM [1] | inhibition at 10 µM [2] | inhibition at 30 µM [2] | IC50 [2] | IC50 [3] | inhibition at 10 µM [4] | inhibition at 30 µM [4] | IC50 [4] | inhibition at 10 µM [5] | inhibition at 30 µM [5] | inhibition at 10 µM [6] | inhibition at 30 µM [6] | inhibition at 10 µM [7] | inhibition at 30 µM [7] |
| --- | --- | --- | --- | --- | --- | --- | --- | --- | --- | --- | --- | --- | --- | --- | --- | --- | --- | --- | --- |
| 1.04 µM | 3.78 µM | 3.09 µM | 2.3 µM | COC(=O)[C@]1(C)CCC[C@@]2(C)[C@@H]3CC[C@@]4(CNCc5ccc(OC)cc5)C[C@]3(CC[C@@H]21)C[C@H]4O [Compound 32, (4R,4aS,6aR,8R,9S,11aR,11bS)-Methyl 8-hydroxy-9-(((4-methoxybenzyl)amino)methyl)-4,11b-dimethyltetradecahydro-6a,9-methanocyclohepta[a]naphthalene-4-carboxylate] | 99.59 ± 0.13% | 99.88 ± 0.23% | 96.93 ± 0.92% | 96.6 ± 1.05% | 3.71 µM | 1.04 to 5.77 µM | 95.6 ± 2.12% | 96.5 ± 1.09% | 5.77 µM | 97.94 ± 0.6% | 98.01 ± 0.6% | 97.09 ± 0.79% | 97.18 ± 0.76% | 97.12 ± 0.6% | 96.3 ± 1.02% |
| 1.59 µM | 4.39 µM | 5.07 µM | 3.28 µM | COC(=O)[C@]1(C)CCC[C@@]2(C)[C@@H]3CC[C@@]4(CNCc5ccc(F)cc5)C[C@]3(CC[C@@H]21)C[C@H]4O [Compound 23, (4R,4aS,6aR,8R,9S,11aR,11bS)-Methyl 9-(((4-fluorobenzyl)amino)methyl)-8-hydroxy-4,11b-dimethyltetradecahydro-6a,9-methanocyclohepta[a]naphthalene-4-carboxylate] | 95.81 ± 0.84% | 95.3 ± 1.05% | 81.8 ± 3.07% | 93.62 ± 0.77% | 5.15 µM | 1.59 to 5.15 µM | 68.1 ± 1.85% | 80.5 ± 3.16% | 4.41 µM | 80 ± 1.6% | 95.71 ± 0.58% | 70.1 ± 1.97% | 90.41 ± 0.78% | 92.99 ± 0.39% | 91.4 ± 0.39% |
